Source: patent US6472385B1, “Compositions and methods to enhance cancer chemotherapy in p53 defective tumors” (priority 1999, dated 2002)

Legend:
[1] = tested on: DNA damage-induced cell cycle arrest; assay: Cell cycle analysis: abrogation of DNA damage-induced cell cycle arrest; assay type: cell-based; conditions: for G2 arrest caused by the compound itself: compound alone / at concentrations capable of abrogating arrest
Procedure: Experiments of cell cycle analysis were conducted in accordance with procedures described by […] et al. Cell Growth and Differ. 1994 5:983-993; Bunch, R. T. and Eastman, A. […] T. and Eastman, A. Cell Growth and Differ. 1997 8:779-788.

[2] = tested on: p53 defective human breast cancer cells lines, MDA-MD-231 and T47D; assay: Selectivity of arrest abrogation for p53 defective cell lines; assay type: cell-based
Procedure: The breast cancer cell lines were obtained from the American Type Culture Collection (Rockville, Md.). The cells were maintained in Dulbecco's modified Eagle's Medium supplemented with 10% fetal bovine serum, penicillin (100 units/ml), streptomycin (100 μg/ml) and fungizone (0.25 μg/ml).

[3] = tested on: DNA damage-induced cell cycle arrest; assay: Cell cycle arrest abrogation in the presence of human plasma / plasma proteins; assay type: cell-based; conditions: human plasma / human plasma proteins added
Procedure: However, in K252a the hexose. moiety is replaced with a pentose moiety. […] It is believed that the pentose ring of this structure prevents binding of this compound to human plasma proteins.
Experiments of cell cycle analysis were conducted in accordance with procedures described by Demarcq et al. Cell Growth and Differ. 1994 5:983-993; Bunch, R. T. and Eastman, A. Clinical Cancer Research 1996 2:791-7; and Bunch, R. T. and Eastman, A. Cell Growth and Differ. 1997 8:779-788.

[4] = tested on: human prostate carcinoma cells; conditions: cited from earlier work
[5] = tested on: G2 checkpoint activated by DNA damage; conditions: literature; UCN-01: noncytotoxic doses, cisplatin; cited from earlier work
[6] = tested on: Chinese hamster ovary cells; conditions: Chinese hamster ovary cells incubated with cisplatin; cited from earlier work
human cells = conditions: cited from earlier work

COC(=O)[C@@]1(O)CC2O[C@]1(C)n1c3ccccc3c3c4c(c5c6ccccc6n2c5c31)C(=O)NC4=O [ICP1]
G2 arrest caused by the compound itself [1]: does not cause G2 arrest
abrogation of cell cycle arrest ([1]; non-toxic concentrations): abrogates cell cycle arrest at non-toxic concentrations
selectivity of abrogation of cell arrest for p53 defective cell lines [2]: selective for p53 defective cell lines
activity (abrogation of cell cycle arrest) in the presence of human plasma [3]: maintain its ability to abrogate cell cycle arrest

COC(=O)[C@@]1(O)CC2O[C@]1(C)n1c3ccccc3c3c4c(c5c6ccccc6n2c5c31)C(=O)NC4 [K252a]
abrogation of cell cycle arrest in the G2 phase ([1]; G2 phase): does not abrogate cell cycle arrest in the G2 phase
abrogation of cell cycle arrest in the S phase ([1]; S phase): only abrogates cell cycle arrest in the S phase
G2 arrest caused by the compound itself [1]: causes G2 arrest
inhibition of growth of human prostate carcinoma cells [4]: inhibit the growth
activity (abrogation of cell cycle arrest) in the presence of human plasma [3]: not inhibited

CN[C@@H]1C[C@H]2O[C@@](C)([C@@H]1OC)n1c3ccccc3c3c4c(c5c6ccccc6n2c5c31)C(=O)NC4 [staurosporine]
abrogation of G2 checkpoint / G2 arrest after DNA damage [5]: abrogate the G2 checkpoint

C[C@@](O)(/C=C/[C@H]1CC=CC(=O)O1)[C@@H](C[C@@H](O)\C=C/C=C\C=C\CO)OP(=O)(O)O [fostriecin]
abrogation of G2 checkpoint / G2 arrest after DNA damage [5]: abrogate the G2 checkpoint

CN[C@@H]1C[C@H]2O[C@@](C)([C@@H]1OC)n1c3ccccc3c3c4c(c5c6ccccc6n2c5c31)C(=O)N[C@H]4O [UCN-01, 7-hydroxystaurosporine]
abrogation of S-phase arrest [6]: abrogates this S-phase arrest
abrogation of G2 checkpoint / G2 arrest after DNA damage [5]: abrogate the G2 arrest
abrogation of S phase arrest (human cells): Abrogation of S phase arrest has also been observed

COC[C@@H]([C@H](O)[C@H](O)C(=O)NCC[C@H](C)c1nc(/C=C/C[C@@H]2O[C@]3(C[C@@H](O)[C@@H]2C)O[C@H]([C@H](C[C@H](O)[C@H](C)[C@H](O)[C@H](C)/C=C(C)/C(C)=C/C=C/C(C)=C\C#N)OC)[C@H](OP(=O)(O)O)C3(C)C)co1)N(C)C [calyculin A]
abrogation of G2 checkpoint / G2 arrest after DNA damage [5]: abrogate the G2 checkpoint

CC(=O)CCCCn1c(=O)c2c(ncn2C)n(C)c1=O [pentoxifylline]
abrogation of G2 checkpoint / G2 arrest after DNA damage [5]: abrogate the G2 checkpoint

C=C1[C@@H](O)[C@@H]2O[C@]3(CC[C@H](/C=C/[C@@H](C)[C@@H]4CC(C)=C[C@@]5(O[C@H](C[C@@](C)(O)C(=O)O)CC[C@H]5O)O4)O3)CC[C@H]2O[C@@H]1[C@@H](O)C[C@H](C)[C@H]1O[C@@]2(CCCCO2)CC[C@H]1C [okadaic acid]
abrogation of G2 checkpoint / G2 arrest after DNA damage [5]: abrogate the G2 checkpoint
